Experiment [1] concerns the target T1, preformed R2R3 (WT) fibrils (Homo sapiens, UniProt P10636).
T1 construct: Peptides spanning R2R3—including PHF6 and PHF6*; purchased ProteoGenix (Schiltigheim, France); host or cells: chemical synthesis (custom peptide)
Description: Elongation of preformed R2R3 (WT) fibrils, ThT. Particulars: R2R3 WT pre-aggregated 24 h, compound 10 μM; for ThT-stained aggregates from post-treatment samples, confocal imaging: further 24 h. The format is biochemical. As to the method:
Peptides were pre‐aggregated for 24 h with aggregation kinetics monitored by ThT fluorescence, after which 10 μM PUR or OLC was added, followed by an additional 24–30 h of incubation (Figure 4a). Aggregation kinetics was monitored by ThT fluorescence, and elongation was quantified as the AUC following compound addition, normalized to each replicate's maximum pre‐treatment fluorescence (Figure 4b). […] WT peptide fibril elongation was reduced to 15.5 ± 2.8% (PUR) and 45.2 ± 3.2% (OLC), and P301L peptide fibril elongation was limited to 31.8 ± 0.6% (PUR) and 85.6 ± 2.2% (OLC) (Figure 4b). Fluorescence microscopy imaging further confirmed the presence of reduced ThT‐positive aggregates following the addition of PUR and OLC (Figure S12). Similar inhibition trends, with PUR outperforming OLC, were also observed for V287I and N279K peptides (Figure S12).
FIGURE 4 Purpurin (PUR) and oleocanthal (OLC) inhibit elongation of preformed wild‐type (WT) and P301L tau fibrils. (a) The thioflavin T (ThT) fluorescence kinetics of pre‐aggregated R2R3 (WT and P301L) tau peptides treated with PUR or OLC (10 μM). Peptides were first allowed to aggregate for 24 h, followed by compound addition and continued incubation for an additional 24–30 h. Vertical dashed lines indicate the time point of compound addition. Curves are normalized to each replicate's maximum pre‐treatment ThT fluorescence. Source data are provided in the Data Availability Statement section. Mean ± SEM (n ≥ 3). (b) Aggregation levels post‐treatment, expressed as a percentage of control (untreated fibrils), calculated from the area under the curve after compound addition. Mean ± SEM (n ≥ 3). ***p < 0.001, **p < 0.01, one‐way ANOVA (Tukey's post hoc test).
Figure S12. Confocal imaging of ThT-stained aggregates from post-treatment samples in Figure 4. R2R3 (WT and P301L) tau peptides were incubated for 24 h to allow initial aggregation, followed by the addition of PUR or OLC (10 µM). After a further 24 h, reaction mixtures from compound-treated wells were collected, embedded in 0.05% low-melting agarose, and processed for imaging as described in Figure S11. […] Scale bar: 50 μm.

Experiment [2] addresses R2R3 (P301L) tau peptide (Homo sapiens, UniProt P10636, P618L). Nature of the experiment: SPR titration cycle kinetics, immobilized R2R3 (P301L) peptide. Format: binding. Here is the method: SPR experiments were conducted using the Sierra® SPR‐24 Pro system (Bruker Daltonics, Bremen, Germany), featuring a gold‐coated microfluidic array (24 detection spots, 3 × 8 format). Data acquisition and kinetic analysis were performed using SPR Analyzer 4 software.
All experiments were conducted at 25°C using PBS (pH 7.4) supplemented with 0.05% Tween‐20 and 5% DMSO as the running buffer to ensure assay reproducibility. Assay components, including 96‐well microtiter plates (Part # 1862984; Burker) and Microplate and Reservoir Sealer (Part #1862985; Burker), were used for sample handling and were compatible with the Sierra SPR®‐24 Pro system (Bruker Daltonics, Billerica, MA, USA).
WT and mutant (P301L, V287I, and N279K) tau peptides were dissolved in 10 mM sodium acetate buffer (pH 5.0; Burker) and immobilized onto High‐Capacity Amine Sensor Surfaces (Part #1862614; Bruker) using the Amine Coupling Kit (Part #1862634; Bruker). The sensor surface was preconditioned with a Surface Elution Buffer (Part #1862656; Bruker Daltonics) and 0.1M HCl to remove contaminants and improve binding specificity.
The surface was activated using 400 mM 1‐ethyl‐3‐(3‐dimethylaminopropyl) carbodiimide (Burker) and 50 mM N‐hydroxysuccinimide (Burker), enabling covalent attachment of tau peptides. Unreacted binding sites were blocked with 1M ethanolamine‐HCl (pH 8.5; Burker) to minimize nonspecific interactions. For each experiment, specific sensor spots (A/B/C) on channels 1–8 were designated for tau‐analyte interactions, with corresponding reference spots on the same channel for baseline correction. DMSO calibration solutions (4.6%, 4.8%, 5%, 5.2%, and 5.4%) were prepared for double referencing to compensate for DMSO solvent effects.
PUR and OLC were prepared in PBS (pH 7.4) supplemented with 0.05% Tween‐20 and 5% DMSO. Compound interactions with tau peptides were pre‐screened using a concentration range of 1–100 μM, and subsequent binding kinetics were evaluated at optimized concentrations. For kinetic studies, PUR was tested at […], while OLC was tested at 25–100 μM using two‐fold serial dilutions. Each analyte was sequentially injected, and association and dissociation phases were monitored to determine kinetic parameters.
SPR binding kinetics were assessed using the titration cycle kinetics (TCK) assay, which included consecutive association phases followed by a single dissociation phase. Pre‐assay simulations using the Kinetic Simulator feature of SPR Analyzer 4 software were used to optimize analyte concentration ranges and association/dissociation times. A reference blank injection was included for double referencing, and a single dissociation curve was recorded for the highest analyte concentration.
Sensorgrams were analyzed using the Kinetic Titration model, which was integrated into the global kinetic fitting model of the SPR Analyzer 4 software. This approach allowed for baseline correction and improved the reliability of kinetic parameters, including the Kon, Koff, and KD.
TCK‐derived kinetic parameters were compared across multiple runs and confirmed using Multi Injection Cycle Kinetics to validate reproducibility and accuracy.

This note sets out measurements from PMC12381781, “Structural and functional insights into the selective inhibition of mutant tau aggregation by purpurin and oleocanthal in frontotemporal dementia” (Protein Science : A Publication of the Protein Society, 2025).

Read-outs that look alike come from different tables or passages of the source.

Chain of R2R3 (P301L) tau peptide (P10636 592-653 P618L): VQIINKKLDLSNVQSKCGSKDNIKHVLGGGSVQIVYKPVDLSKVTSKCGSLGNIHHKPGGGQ
T1 sequence (P10636 592-653 limits assumed): as the sequence (P10636 592-653 P618L) above, with L27P counted along it

What is called koff is the rate constant with which the complex falls apart. For orientation: Kd means a measure of binding affinity in units of concentration. `C/C=C(/C=O)[C@@H](CC=O)CC(=O)OCCc1ccc(O)cc1` [OLC, oleocanthal]: in experiment [1] (further 24–30 h), the “fibril elongation, aggregation post-treatment as percentage of control (AUC after compound addition)” value is on record as 45.2 ± 3.2%. The “ThT-stained aggregates from post-treatment samples, confocal imaging” value in experiment [1] was “either a complete absence or a marked reduction in ThT signal”. In experiment [2] (SPR, R2R3 P301L), this molecule returned a Kon of 52.36 M⁻¹ s⁻¹ and a koff of 8.26e-05 s⁻¹. Moreover, the Kd in experiment [2] (SPR, R2R3 P301L peptide immobilized, 25°C, PBS pH 7.4, read-out: KD) is 1.58 µM.

In general, kon refers to the rate constant with which the complex forms. The low end stands for slower complex formation, the high end for faster complex formation. As for `O=C1c2ccccc2C(=O)c2c(O)c(O)cc(O)c21` [PUR, purpurin], the remaining activity at 10 µM in experiment [1] (further 24–30 h, read-out: fibril elongation, aggregation post-treatment as percentage of control (AUC after compound addition)) was 15.5 ± 2.8%. Also, the “ThT-stained aggregates from post-treatment samples, confocal imaging” value in experiment [1] is “either a complete absence or a marked reduction in ThT signal”. This molecule also displayed a Kd in experiment [2] of 14.8 µM. In addition, the kon in experiment [2] (SPR, R2R3 P301L) came out at 26.4 M⁻¹ s⁻¹. Further, in experiment [2] (SPR, R2R3 P301L, read-out: Koff), the koff was 0.00039 s⁻¹.
